{
  "source": "patent US20230404985A1",
  "about": "“METHODS OF TREATING TUMORS AND CANCERS HAVING DYSREGULATED WNT SIGNALING PATHWAYS” (ICAHN SCHOOL OF MEDICINE AT MOUNT SINAI, priority 2020, published 2023)",
  "key": {"[1]": {"system": "receptor tyrosine kinases including KIT and VEGFR1/2", "experiment": "NanoBRET live cell target engagement, receptor tyrosine kinases", "format": "cell-based", "conditions": "relative to sorafenib and regorafenib"}, "[2]": {"system": "cytoplasmic kinases including BRAF and p38α/β", "experiment": "NanoBRET live cell target engagement, cytoplasmic kinases", "format": "cell-based", "conditions": "relative to sorafenib and regorafenib", "method": "For NanoBRET™ dose response experiments, SNU398 cells were transfected with a MAPK14-NanoLuc© Fusion Vector according to the Promega NanoBRET™ TE Intracellular Kinase Assay protocol. Following overnight transfection, cells were trypsinized and redistributed on a white 96-well plate (20,000 cells per well). Cells were incubated with 1 μM of K-4 Tracer and sorafenib or WNTinib at doses ranging from 0.02→20 μM for two hours. After drug incubation, plates were equilibrated to room temperature for 15 minutes, and NanoBRET™ Nano-Glo© Substrate and Extracellular NanoLuc© Inhibitor were added to wells. Bioluminescent donor (NanoLuc© luciferase) and fluorescent acceptor (Tracer) emission were measured on a GloMax plate reader at 450 and 600 nm, respectively. BRET ratio is reported as acceptor signal divided by the donor signal for each well. Conditions were evaluated in technical triplicates for each experiment, and experiments were repeated in biological duplicates. […] The plate was continuously read on a GloMax plate reader for 2 hours to record BRET signal from the association of the K-4 Tracer with the MAPK14-NanoLuc© Fusion Vector. Conditions were evaluated in technical triplicates, and experiments were repeated in biological duplicates.\nIn order to characterize the direct targets of WNTinib, kinome selectivity profiles were first assessed by in vitro kinase assays. […]"}, "[3]": {"system": "AKS: APCKO::KRASG12D::SMAD4KO tumoroids", "experiment": "TiterGlo viability of CRC tumoroids (AKS)", "format": "cell-based, mouse", "method": "FIGS. 13A-13E show results pertaining to colorectal cancer. […] Data are column/gene normalized on a 0-100 scale with 0 being the lowest expression level and 100 the highest. FIG. 13D show full dose-response analysis of WNTinib's effects on the indicated organoid and tumoroid lines; viability was quantified using the TiterGlo assay after 72 hours. WT intestinal organoids are used as a control. […] Images of the intestine are shown as an example.\nFirst, an APC deletion (A) was introduced, then a KRAS^G12D overexpression (AK) in combination with a SMAD4^KO was introduced to affect the TGFbeta pathway (AKS). Last, P53 was deleted to mimic the latest stages of metastatic disease progression (AKSP)."}, "[4]": {"system": "immune cell tumor infiltration", "experiment": "Immune cell profiling of tumors by spectral cytometry", "format": "in vivo, mouse", "conditions": "compared to vehicle or standard of care (sorafenib); six days after start of dosing", "method": "FIGS. 14A-14G show results pertaining the use of WNTinib in combination with immunotherapy. […] C57/BL6 mice were randomized into treatment groups using IVIS imaging to quantify tumor size based on luminescence signal intensity. After randomization, kinase inhibitors were dissolved in 25% cremaphor:ethanol in water and administered orally (30 mg/kg sorafenib, 20 mg/kg WNTinib) beginning 7 days after injection following 5 days on/2 days off dosing schedule. Immunotherapy (anti-PD-1) was administered via intraperitoneal injection on days 11, 13, and 15 after injection at 200 μg. Log-rank p-values for survival in drug treatment groups to vehicle group and median survival are shown. Mice were assigned to different treatment groups as follows: vehicle (25), sorafenib (10), aPD-1 (15), WNTinib (25), and WNTinib+aPD-1 (25). […] Significant differences between groups indicated by asterisks. ** P<0.005, *** P<0.0005, as calculated with an ANOVA with Tukey test for multiple comparisons. Animals were dosed via daily oral gavage using 20 mg/kg of WNTinib and 30 mg/kg of sorafenib. […] 3 animals per indicated groups were assessed using spectral cytometry panels for both lymphocytes and myeloid cells. […]\nNext, the effect of WNTinib on immune cell tumor infiltration was evaluated."}},
  "data": [
    {"compound": "CNC(=O)c1cc(Oc2ccc(NC(=O)Nc3ccc(C(F)(F)C(F)(F)F)cc3)c(F)c2)ccn1", "note": "[WNTinib, 4-(3-fluoro-4-(3-(4-(perfluoroethyl)phenyl)ureido)phenoxy)-N-methylpicolinamide]", "values": [
      {"measurement": "live cell target engagement IC50 on receptor tyrosine kinases", "setting": "[1]", "result": "retained a similar in vivo IC50"},
      {"measurement": "target engagement potency on cytoplasmic kinases BRAF and p38α/β", "setting": "[2]", "result": "markedly less potent than sorafenib and regorafenib"},
      {"measurement": "viability of AKS CRC line", "setting": "[3]; 72 hours post treatment", "result": "reduce the viability"},
      {"measurement": "organoid morphology of AKS organoids", "setting": "[3]; WNTinib 3 μM, 72 hrs", "result": "induce a reversal of organoid morphology"},
      {"measurement": "immune cell tumor infiltration", "setting": "[4]", "result": "significantly increase the number of CD45^+ cells, the ratio of CD4/CD8, and the number of neutrophils and reduce the number of B cells and immunosuppressed tissue associated macrophages (TAM) in tumors"}
    ]}
  ]
}
